Among the data in patent US9204646B2, “Pyrazole tetrahydronaphthyl carboxamides” (BAYER CROPSCIENCE AG, priority 2012, dated 2015) are Eff. %, logP and chromatographic logP values, retold here.

For one data set, the system named is Sphaerotheca fuliginea. Nature of the data set: In vivo preventive test on Sphaerotheca fuliginea (powdery mildew on cucurbits). Conditions: dose of 500 ppm; preventive spray on gherkin plants; grading 12 days after contamination vs control plants. Here is the method:
Gherkin plants (“Vert petit de Paris” variety), sown in starter cups on a 50/50 peat soil-pozzolana substrate and grown at 24° C., are treated at the Z11 cotyledon stage by spraying with the active ingredient prepared as described above. Plants, used as controls, are treated with the mixture of acetone/tween/DMSO/water not containing the active material. After 24 hours, the plants are contaminated by spraying the cotyledons with an aqueous suspension of Sphaerotheca fuliginea spores (100 000 spores per ml). The spores are collected from infected plants. The contaminated gherkin plants are incubated at about 20° C. and at 70-80% relative humidity. Grading (% of efficacy) is carried out 12 days after the contamination, in comparison with the control plants.

The next data set has as its system Puccinia recondita. Nature of the data set: In vivo preventive test on Puccinia recondita (brown rust on wheat). Conditions: dose of 500 ppm; preventive spray on wheat plants; grading 12 days after contamination vs control plants. How it is done: Wheat plants (“Scipion” variety), sown in starter cups on a 50/50 peat soil-pozzolana substrate and grown at 22° C., are treated at the 1-leaf stage (10 cm height) by spraying with the active ingredient prepared as described above. Plants, used as controls, are treated with the mixture of acetone/tween/DMSO/water not containing the active material. After 24 hours, the plants are contaminated by spraying the leaves with an aqueous suspension of Puccinia recondita spores (100 000 spores per ml). […] The contaminated wheat plants are incubated for 24 hours at 20° C. and at 100% relative humidity, and then for 10 days at 20° C. and at 70-80% relative humidity. Grading (% of efficacy) is carried out 12 days after the contamination, in comparison with the control plants.

In another data set the test system is Pyricularia oryzae. In kind it is in vivo. As to conditions: dose of 500 ppm; preventive spray on rice plants; grading 6 days after contamination vs control plants.
Another data set concerns Pyrenophora teres. Put plainly: In vivo preventive test on Pyrenophora teres (net blotch on barley). Conditions: dose of 500 ppm; preventive spray on barley plants; grading 14 days after contamination vs control plants. How it is done:
Barley plants (“Plaisant” variety), sown in starter cups on a 50/50 peat soil-pozzolana substrate and grown at 22° C., are treated at the 1-leaf stage (10 cm height) by spraying with the active ingredient prepared as described above. Plants, used as controls, are treated with the mixture of acetone/tween/DMSO/water not containing the active material. After 24 hours, the plants are contaminated by spraying the leaves with an aqueous suspension of Pyrenophora teres spores (12 000 spores per ml). The spores are collected from a 12-day-old culture. The contaminated barley plants are incubated for 48 hours at 20° C. and at 100% relative humidity, and then for 12 days at 20° C. at 70-80% relative humidity. Grading (% of efficacy) is carried out 14 days after the contamination, in comparison with the control plants.

Data set [1] is described as follows: Measurement of log P values by HPLC on reversed phase columns (EEC directive 79/831 Annex V.A8). It is filed as physicochemical. As to conditions: for logP: method [a]: LC-MS at pH 2.7, 0.1% formic acid in water / acetonitrile, linear gradient 10% to 95% acetonitrile, Table 1 active ingredients; for chromatographic logP: pH 2.7.
In a further data set the test system is Uromyces appendiculatus. Put plainly: In vivo preventive test on Uromyces appendiculatus (bean rust). Conditions: dose of 500 ppm; preventive spray on bean plants; grading 11 days after contamination vs control plants. Here is the method:
Bean plants (“Saxa” variety), sown in starter cups on a 50/50 peat soil-pozzolana substrate and grown at 24° C., are treated at the 2-leaf stage (9 cm height) by spraying with the active ingredient prepared as described above. Plants, used as controls, are treated with the mixture of acetone/tween/DMSO/water not containing the active material. After 24 hours, the plants are contaminated by spraying the leaves with an aqueous suspension of Uromyces appendiculatus spores (150 000 spores per ml). […] The contaminated bean plants are incubated for 24 hours at 20° C. and at 100% relative humidity, and then for 10 days at 20° C. and at 70-80% relative humidity. Grading (% of efficacy) is carried out 11 days after the contamination, in comparison with the control plants.

Data set [2] relates to Fusarium nivale (var. majus). Nature of the data set: In vivo Fusarium nivale (var. majus)-test (wheat)/preventive. Conditions: concentration of 500 ppm of active ingredient; preventive spray on wheat plants; evaluated 5 days after inoculation; 0% = untreated control, 100% = no disease. Here is the method:
• Solvent: 49 parts by weight of N,N-dimethylacetamide • Emulsifier: 1 part by weight of alkylaryl polyglycol ether To produce a suitable preparation of active compound, 1 part by weight of active compound or active compound combination is mixed with the stated amounts of solvent and emulsifier, and the concentrate is diluted with water to the desired concentration. To test for preventive activity, young plants are sprayed with the preparation of active compound or active compound combination at the stated rate of application. After the spray coating has been dried, the plants are slightly injured by using a sandblast and afterwards they are sprayed with a conidia suspension of Fusarium nivale (var. majus). The plants are placed in the greenhouse under a translucent incubation cabinet at a temperature of approximately 10° C. and a relative atmospheric humidity of approximately 100%.

A further data set has as its system Alternaria brassicae. Nature of the data set: In vivo preventive test on Alternaria brassicae (leaf spot on radish). As to conditions: dose of 500 ppm; preventive spray on radish plants; grading 6 days after contamination vs control plants. How it is done:
Radish plants (“Pernod Clair” variety), sown in starter cups on a 50/50 peat soil-pozzolana substrate and grown at 17° C., are treated at the cotyledon stage by spraying with the active ingredient prepared as described above. Plants, used as controls, are treated with the mixture of acetone/tween/DMSO/water not containing the active material. After 24 hours, the plants are contaminated by spraying the cotyledons with an aqueous suspension of Alternaria brassicae spores (50 000 spores per ml). The spores are collected from a 15-day-old culture. The contaminated radish plants are incubated at 20° C. and at 100% relative humidity. Grading (% of efficacy) is carried out 6 days after the contamination, in comparison with the control plants.

The test system of another data set is Septoria tritici. Nature of the data set: In vivo preventive test on Septoria tritici (leaf spot on wheat). Conditions: dose of 500 ppm; preventive spray on wheat plants; grading 24 days after contamination vs control plants. Here is the method:
Wheat plants (“Scipion” variety), sown in starter cups on a 50/50 peat soil-pozzolana substrate and grown at 22° C., are treated at the 1-leaf stage (10 cm height) by spraying with the active ingredient prepared as described above. Plants, used as controls, are treated with the mixture of acetone/tween/DMSO/water not containing the active material. After 24 hours, the plants are contaminated by spraying the leaves with an aqueous suspension of cryopreserved Septoria tritici spores (500 000 spores per ml). The contaminated wheat plants are incubated for 72 hours at 18° C. and at 100% relative humidity, and then for 21 days at 90% relative humidity. Grading (% of efficacy) is carried out 24 days after the contamination, in comparison with the control plants.

For a further data set, the system named is Phakopsora pachyrhizi. Nature of the data set: In vivo Phakopsora test (soybeans)/preventive. As to conditions: concentration of 10 ppm of active ingredient; preventive spray on soybean plants; evaluated 7 days after inoculation; 0% = untreated control, 100% = no disease. Here is the method: To produce a suitable preparation of active compound, 1 part by weight of active compound is mixed with the stated amounts of solvent and emulsifier, and the concentrate is diluted with water to the desired concentration. To test for preventive activity, young plants are sprayed with the preparation of active compound at the stated rate of application. After the spray coating has dried on, the plants are inoculated with an aqueous spore suspension of the causal agent of soybean rust (Phakopsora pachyrhizi) and stay for 24 h without light in an incubation cabinet at approximately 24° C. and a relative atmospheric humidity of 95%. The plants remain in the incubation cabinet at approximately 24° C. and a relative atmospheric humidity of approximately 80% and a day/night interval of 12 h.

The test system of another data set is Botrytis cinerea. Put plainly: In vivo preventive test on Botrytis cinerea (grey mould). Conditions: dose of 500 ppm; preventive spray on gherkin plants; grading 4 to 5 days after contamination vs control plants. Here is the method:
Gherkin plants (“Vert petit de Paris” variety), sown in starter cups on a 50/50 peat soil-pozzolana substrate and grown at 24° C., are treated at the Z11 cotyledon stage by spraying with the active ingredient prepared as described above. Plants, used as controls, are treated with the mixture of acetone/tween/DMSO/water not containing the active material. After 24 hours, the plants are contaminated by spraying the cotyledons with an aqueous suspension of cryopreserved Botrytis cinerea spores (50 000 spores per ml). The spores are suspended in a nutrient solution composed of 10 g/L of PDB, 50 g/L of D-Fructose, 2 g/L of NH4NO3 and 1 g/L of KH2PO4. The contaminated gherkin plants are incubated at 17° C. and at 90% relative humidity. Grading (% of efficacy) is carried out 4 to 5 days after the contamination, in comparison with the control plants.

With `CC1c2cccc(NC(=O)c3c(C(F)F)nn(C)c3F)c2CCC1(C)C` (racemic) [Example 12], the Eff. % with Sphaerotheca fuliginea is 100%; with Puccinia recondita, 100%; in the data set with Pyricularia oryzae, 71%; in the data set with Pyrenophora teres, 81%; with Uromyces appendiculatus it was 100%. Moreover, the logP in data set [1] was 4.11[a].
Consider `Cn1nc(C(F)F)c(C(=O)Nc2cccc3c2CCCC3(C)C)c1F` [Example 1, 5-fluoro-3-(difluoromethyl)-N-(5,5-dimethyl-5,6,7,8-tetrahydronaphthalen-1-yl)-1-methyl-1H-pyrazole-4-carboxamide], for which the Eff. % in data set [2] amounted to 92%; in the data set with Puccinia recondita, 100%; with Uromyces appendiculatus, 100%; in the data set on Alternaria brassicae it was 93%; in the data set on Septoria tritici it was 88%. In data set [1], the chromatographic logP turned out to be 3.67.
Regarding `Cn1nc(C(F)F)c(C(=O)Nc2cccc3c2CCCC3(C)C)c1Cl` [Example 2], the Eff. % in data set [2] stood at 86%; with Puccinia recondita it was 98%; in the data set with Uromyces appendiculatus, 100%; in the data set on Phakopsora pachyrhizi it was 96%. In addition, the logP in [1] is 3.89[a].
For the compound `C=C1c2cccc(NC(=O)c3c(C(F)F)nn(C)c3F)c2CCC1(C)C` [Example 6], the Eff. % is given as 70% in the data set on Sphaerotheca fuliginea; 97% in the data set with Botrytis cinerea; 89% in the data set with Puccinia recondita; 80% in the data set with Pyrenophora teres; 97% in the data set with Uromyces appendiculatus; 97% with Alternaria brassicae. In addition, the Eff. % in the data set with Septoria tritici was 75%. Besides, the logP in data set [1] is 3.87[a].
Regarding `Cn1nc(C(F)F)c(C(=O)Nc2cccc3c2CC(C)(C)CC3)c1F` [Example 13], the Eff. % stood at 98% in the data set on Sphaerotheca fuliginea; 97% in the data set on Puccinia recondita; 75% with Pyrenophora teres; 100% in the data set with Uromyces appendiculatus; 95% with Septoria tritici. Also, the logP in data set [1] was 3.72[a].
For `Cn1nc(C(F)F)c(C(=O)Nc2cccc3c2CC(C)(C)CC3)c1Cl` [Example 14], the Eff. % in the data set on Sphaerotheca fuliginea was 98%; in the data set on Puccinia recondita, 100%; in the data set with Pyrenophora teres, 97%; in the data set on Uromyces appendiculatus it was 99%; in the data set with Alternaria brassicae, 71%; with Septoria tritici it was 90%. In data set [1], the logP is 3.9[a].
Consider `Cn1nc(C(F)F)c(C(=O)Nc2cccc3c2CCC(C)(C)C3)c1F` [Example 22], for which the Eff. % with Sphaerotheca fuliginea came out at 100%; in the data set on Botrytis cinerea it was 99%; in the data set on Puccinia recondita, 94%; in the data set with Pyrenophora teres it was 70%; in the data set with Uromyces appendiculatus, 100%; in the data set with Alternaria brassicae, 80%. The compound further came in with an Eff. % in the data set with Septoria tritici of 83%. In addition, in data set [1], the logP is 3.79[a].
On to `Cn1nc(C(F)F)c(C(=O)Nc2cccc3c2CCC(C)(C)C3)c1Cl` [Example 25, 5-chloro-3-(difluoromethyl)-N-(6,6-dimethyl-5,6,7,8-tetrahydronaphthalen-1-yl)-1-methyl-1H-pyrazole-4-carboxamide], for which the Eff. % in the data set on Botrytis cinerea was found to be 97%; in the data set on Puccinia recondita, 98%; in the data set on Uromyces appendiculatus, 100%; in the data set on Alternaria brassicae, 70%; in the data set on Septoria tritici it was 100%. In addition, in data set [1], the chromatographic logP came to 4.04.
